Reference: PMC6440977, “Nucleoside analogue activators of cyclic AMP-independent protein kinase A of Trypanosoma” (Nature Communications, 2019)
Where “and” joins values, the source holds several entries; their conditions need not be identical. Identical values can stand only once. Like-named read-outs stand apart in the source and are kept apart here. Ends that are not written are not given here. * marks the point of attachment. Myristoyl = CCCCCCCCCCCCCC(=O)*

Assays:
[1] = molecular target: T. brucei PKA (Trypanosoma brucei brucei, UniProt Q9GU80); assay: In vivo PKA reporter assay (VASP Ser-157 phosphorylation, western blot); format: cell-based; conditions: for effect on in vivo PKA activity (VASP phosphorylation), in words: wild type background; for % VASP phosphorylation: independent replicates;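 as to % VASP phosphorylation: Phosphorylated VASP as percent of total VASP band signal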;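 as to all read-outs here: T. brucei cells expressing human VASP as heterologous PKA substrate, compound exposure at 37 °C, western blot of phospho (50 kDa) versus unphosphorylated (46 kDa) VASP band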
Chain of T. brucei PKA (Q38DS1 entry or part of it): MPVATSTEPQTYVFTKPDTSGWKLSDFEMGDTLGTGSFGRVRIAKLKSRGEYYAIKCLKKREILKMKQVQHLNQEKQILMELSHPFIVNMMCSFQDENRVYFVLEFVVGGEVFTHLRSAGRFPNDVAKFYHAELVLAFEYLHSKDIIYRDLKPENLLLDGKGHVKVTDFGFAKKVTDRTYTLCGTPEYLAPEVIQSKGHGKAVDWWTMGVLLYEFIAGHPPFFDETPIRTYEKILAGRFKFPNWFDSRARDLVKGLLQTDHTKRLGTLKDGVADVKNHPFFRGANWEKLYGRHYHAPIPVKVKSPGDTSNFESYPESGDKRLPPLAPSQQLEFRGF
Chain of T. brucei PKA (Q38DR5 entry or part of it, further chain): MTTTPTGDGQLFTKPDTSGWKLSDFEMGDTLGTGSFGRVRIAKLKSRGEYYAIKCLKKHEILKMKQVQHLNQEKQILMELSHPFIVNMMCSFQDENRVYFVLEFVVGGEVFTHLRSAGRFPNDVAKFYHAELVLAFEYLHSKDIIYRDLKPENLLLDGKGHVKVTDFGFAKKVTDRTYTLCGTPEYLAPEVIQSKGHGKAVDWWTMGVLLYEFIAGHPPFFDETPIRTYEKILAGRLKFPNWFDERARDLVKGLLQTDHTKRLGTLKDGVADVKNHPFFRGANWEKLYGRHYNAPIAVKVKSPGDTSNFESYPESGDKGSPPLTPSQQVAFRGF
Chain of T. brucei PKA (Q9GU80 entry or part of it): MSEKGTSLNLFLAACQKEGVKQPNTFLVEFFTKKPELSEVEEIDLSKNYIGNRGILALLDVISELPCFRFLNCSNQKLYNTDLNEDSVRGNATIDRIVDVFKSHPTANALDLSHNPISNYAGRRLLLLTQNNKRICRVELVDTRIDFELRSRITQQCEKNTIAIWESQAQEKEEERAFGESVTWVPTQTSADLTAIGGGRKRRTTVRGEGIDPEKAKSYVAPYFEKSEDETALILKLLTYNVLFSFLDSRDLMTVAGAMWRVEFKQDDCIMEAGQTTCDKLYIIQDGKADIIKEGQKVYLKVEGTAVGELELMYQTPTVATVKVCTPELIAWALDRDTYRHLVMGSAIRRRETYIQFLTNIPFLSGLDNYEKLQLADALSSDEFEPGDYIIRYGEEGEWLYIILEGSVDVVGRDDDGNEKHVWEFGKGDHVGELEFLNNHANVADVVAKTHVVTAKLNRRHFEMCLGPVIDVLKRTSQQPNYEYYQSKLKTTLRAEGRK

[2] = test system: T. brucei BSF cells (WT); assay: Alamar blue cell viability assay, wild type; conditions: wild type cells;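 also: trypanosomes seeded at 5×10^3 per ml and grown 72 h with compound, then resazurin 0.5 mM added for 4 h as the viability read-out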
[3] = test system: T. brucei ∆pkar/∆pkar (pkar KO) cells; assay: microbe, parasite or virus in culture; format: cell-based, Trypanosoma brucei
[4] = molecular target: T. brucei PKAR-PKAC1 holoenzyme (Trypanosoma brucei, UniProt Q9GU80); assay: biochemical; format: biochemical; conditions: for In vitro kinase assay: technical replicates
Chain of T. brucei PKAR-PKAC1 holoenzyme (Q38DR5 entry or part of it): as the sequence (Q38DR5 entry or part of it, further chain) above
Chain of T. brucei PKAR-PKAC1 holoenzyme (Q9GU80 entry or part of it): as the sequence (Q9GU80 entry or part of it) above

[5] = test system: T. brucei PKA holoenzyme (Ty1-PKAC1); format: biochemical, Trypanosoma brucei; conditions: for effect on basal kinase activity of immunoprecipitated holoenzyme, in words / in vitro kinase assay [CPM], average / in vitro kinase assay [CPM]: 1 mM; for in vitro kinase assay [CPM], PKI: 1 mM + 5 µM PKI(5-24); for in vitro kinase assay [CPM], PKI / in vitro kinase assay [CPM], average / in vitro kinase assay [CPM]: Supp Fig 3c; for in vitro kinase assay [CPM], average: average of 3; for in vitro kinase assay [CPM]: independent replicates
[6] = read-out: EC50, Alamar blue cell viability assay, WT, individual replicate results

Compound: Nc1nc2c(nc(Sc3ccc(Cl)cc3)n2[C@@H]2O[C@H](CO)[C@@H](O)[C@H]2O)c(=O)[nH]1 [8-pCPT-Guo, 8-(4-Chlorophenylthio)guanosine]
- effect on in vivo PKA activity (VASP phosphorylation), in words [1]: no effect

Compound: Nc1ncnc2c1nc(Sc1ccc(Cl)cc1)n2[C@@H]1O[C@@H]2COP(=O)([O-])O[C@H]2[C@H]1O.[Na+] [8-pCPT-cAMP, 8-(4-Chlorophenylthio)adenosine-3',5'-cyclic monophosphate]
- % VASP phosphorylation ([1]; 10 µM): 24.5763% and 23.1009% and 28.0286%
- % VASP phosphorylation ([1]; 50 µM): 16.5457% and 18.6378% and 24.8744%
- % VASP phosphorylation ([1]; 100 µM): 10.9425% and 13.8058% and 25.7149%
- % VASP phosphorylation ([1]; 250 µM): 9.807% and 10.2688% and 23.6208%
- % VASP phosphorylation ([1]; 1000 µM): 10.7438% and 15.1961% and 19.6401%
- effect on in vivo PKA activity (VASP phosphorylation), in words [1]: No PKA activation

Compound: Nc1nc2c(nc(Sc3ccc(Cl)cc3)n2[C@@H]2O[C@@H]3COP(=O)(O)O[C@H]3[C@H]2O)c(=O)[nH]1 [8-pCPT-cGMP, 8-(4-Chlorophenylthio)guanosine-3',5'-cyclic monophosphate]
- % VASP phosphorylation ([1]; 10 µM): 25.8142% and 29.2369% and 19.6808%
- % VASP phosphorylation ([1]; 50 µM): 27.9869% and 31.8421% and 17.4767%
- % VASP phosphorylation ([1]; 100 µM): 30.4284% and 21.992% and 28.117%
- % VASP phosphorylation ([1]; 250 µM): 30.7048% and 20.4067% and 21.3305%
- % VASP phosphorylation ([1]; 1000 µM): 32.0969% and 20.8683% and 24.288%

Compound: OCCN(CCO)c1nc(N2CCCCC2)c2nc(N(CCO)CCO)nc(N3CCCCC3)c2n1 [Dipy]
- EC50 [2, 6]: 12.1 µM and 6.38 µM and 10.7 µM and 10.6 µM and 10.9 µM and 16.8 µM and 6.54 µM and 7.48 µM and 7.07 µM and 13.4 µM and 7.42 µM
- EC50 ([3]; individual replicate results; pkar KO cells; read-out: EC50, Alamar blue cell viability assay, KO): 12.4 µM and 21.9 µM and 24.9 µM and 25.2 µM and 9.93 µM and 13.6 µM and 21.1 µM and 14.9 µM and 8.89 µM and 13.3 µM and 13.1 µM

Compound: OCCN(CCO)c1nc(N2CCCCC2)c2nc(N(CCO)CCO)nc(N3CCCCC3)c2n1 [Dipyridamol]
- In vitro kinase assay ([4]; 1 µM): 0.38 U/ml and 0.36 U/ml
- In vitro kinase assay ([4]; 100 µM): 0.31 U/ml and 0.36 U/ml
- In vitro kinase assay ([4]; 1 mM): 0.38 U/ml and 0.41 U/ml

Compound: NC(=O)c1cn([C@@H]2O[C@H](CO)[C@@H](O)[C@H]2O)c2ncnc(N)c12 [Sangi]
- EC50 ([2]; Trypanosoma brucei, read-out: EC50, Alamar blue cell viability assay, WT, individual replicate results): 0.697 µM
- EC50 [2, 6]: 0.895 µM and 0.53 µM and 0.73 µM and 0.713 µM and 0.726 µM and 0.707 µM
- EC50 ([3]; read-out: EC50, Alamar blue cell viability assay, KO; individual replicate results; pkar KO cells): 1.57 µM and 0.868 µM and 2.2 µM and 1.91 µM and 1.63 µM and 1.94 µM and 1.36 µM and 0.902 µM

Compound: Nc1ncnc2c1ccn2[C@@H]1O[C@H](CO)[C@@H](O)[C@H]1O [Tubercidin, 7-Deazaadenosine]
- EC50 [4]: 5 ± 0.5 µM
- In vitro kinase assay ([4]; 0.1 µM): 0.31 U/ml and 0.36 U/ml
- In vitro kinase assay ([4]; 0.78 µM): 0.36 U/ml and 0.39 U/ml
- In vitro kinase assay ([4]; 1.56 µM): 0.39 U/ml and 0.42 U/ml
- In vitro kinase assay ([4]; 3.13 µM): 0.51 U/ml and 0.54 U/ml
- In vitro kinase assay ([4]; 6.25 µM): 0.7 U/ml and 0.67 U/ml
- In vitro kinase assay ([4]; 12.5 µM): 0.84 U/ml and 0.75 U/ml
- In vitro kinase assay ([4]; 25 µM): 0.84 U/ml and 0.93 U/ml
- In vitro kinase assay ([4]; 50 µM): 0.89 U/ml and 0.85 U/ml
- effect on in vivo PKA activity (VASP phosphorylation), in words [1]: No effect

Compound: CC(=O)OCOP1(=O)OC[C@H]2O[C@@H](n3cnc4c(N)ncnc43)[C@H](O)[C@@H]2O1 (stereo partly shown) [cAMP-AM, Adenosine-3',5'-monophosphate, acetoxymethyl ester]
- % VASP phosphorylation ([1]; 10 µM): 36.276% and 37.2% and 34.8195%
- % VASP phosphorylation ([1]; 20 µM): 33.4307% and 32.7356% and 35.3637%
- % VASP phosphorylation ([1]; 50 µM): 35.9017% and 33.7363% and 34.7458%
- % VASP phosphorylation ([1]; 100 µM): 35.4076% and 39.0007% and 33.2483%
- % VASP phosphorylation ([1]; 200 µM): 44.3984% and 35.5186% and 38.5924%
- effect on in vivo PKA activity (VASP phosphorylation), in words [1]: No PKA activation

Compound: CC(=O)OCOP1(=O)OC[C@H]2O[C@@H](n3cnc4c(=O)[nH]c(N)nc43)[C@H](O)[C@@H]2O1 (stereo partly shown) [cGMP-AM, Guanosine-3',5'-cyclic monophosphate, acetoxymethyl ester]
- % VASP phosphorylation ([1]; 10 µM): 34.8925% and 34.7802% and 32.2694%
- % VASP phosphorylation ([1]; 20 µM): 44.672% and 38.9969% and 29.3979%
- % VASP phosphorylation ([1]; 50 µM): 40.2424% and 33.9184% and 40.637%
- % VASP phosphorylation ([1]; 100 µM): 34.6686% and 36.9156% and 43.827%
- % VASP phosphorylation ([1]; 200 µM): 34.2202% and 37.453% and 36.5899%

Compound: O=c1[nH]cnc2c1ncn2[C@@H]1O[C@@H]2COP(=O)(O)O[C@H]2[C@H]1O [cIMP, inosine-3’,5’-cyclic monophosphate]
- effect on basal kinase activity of immunoprecipitated holoenzyme, in words [5]: did not show any significant effects
- in vitro kinase assay [CPM], PKI [5]: 620.6 CPM
- in vitro kinase assay [CPM], average [5]: 7285.53 CPM
- in vitro kinase assay [CPM] [5]: 5568.4 CPM and 8615.56 CPM and 7672.63 CPM

Compound: O=c1ccn([C@@H]2O[C@@H]3COP(=O)(O)O[C@H]3[C@H]2O)c(=O)[nH]1 [cUMP, uridine -3’,5’-cyclic monophosphate]
- effect on basal kinase activity of immunoprecipitated holoenzyme, in words [5]: did not show any significant effects
- in vitro kinase assay [CPM], PKI [5]: 572.53 CPM
- in vitro kinase assay [CPM], average [5]: 5670.69 CPM
- in vitro kinase assay [CPM] [5]: 4751.21 CPM and 5966.27 CPM and 6294.58 CPM

Compound: O=c1[nH]c(=O)c2ncn(C3OC4COP(=O)(O)OC4C3O)c2[nH]1 (stereo not shown) [cXMP, xanthosine-3’,5’-cyclic monophosphate]
- effect on basal kinase activity of immunoprecipitated holoenzyme, in words [5]: did not show any significant effects
- in vitro kinase assay [CPM], PKI [5]: 870.13 CPM
- in vitro kinase assay [CPM], average [5]: 6246.71 CPM
- in vitro kinase assay [CPM] [5]: 4909.43 CPM and 6708.76 CPM and 7121.93 CPM

Compound: myr-PKI(14–22): myristoylated membrane-permeable peptide inhibitor of PKA (Myristoyl-SGRTGRRNA; UniProt P61925 14-22, looked up, fragment)
- VASP phosphorylation upon treatment with inhibitor alone ([1]; depending on the inhibitor batch): 3-10%
- effect on in vivo PKA activity (VASP phosphorylation), in words [1]: reduced the measured activity to background
